Reference: paper PMC6874057, “Synthesis of Chalcone Derivatives: Inducing Apoptosis of HepG2 Cells via Regulating Reactive Oxygen Species and Mitochondrial Pathway” (Frontiers in Pharmacology, 2019)

Tests used:
WI-38 = assay: MTT cell viability assay, normal cell line WI-38; format: cell-based, human; conditions: Homo sapiens, WI-38, 48 h, normal cells, mean ± SE
Method: (§1) HeLa, A549, HepG2, HL-60, and WI-38 cell lines were incubated in DMEM solution containing 10% FBS for 48 h. The incubated tumor cells were seeded into 96-well plates (5 × 10^3 cells/well) to make them attach for 12 h. Afterwards, the cells were processed with the various concentrations of the synthetic compounds and 5-FU for 48 h. After removing the cell culture supernatant, 10 µl MTT (5 mg/ml) solution was dripped into the cells to generate a formazan product, which were dissolved by dimethyl sulfoxide (DMSO) 4 h later. Multifunction microplate reader (Bio-Rad Laboratories, Shanghai, China) was adopted to measure the absorbance at the wave length of 490 nm. The IC50 (the lowest drug concentration causing 50% of the tumor cells inhibition) was then calculated using GraphPad Prism Software (version 5.02) and used to indicate the cytotoxic effect of the target compounds on the selected tumor cells.

A549 = assay: MTT cell viability assay, A549; format: cell-based, human; conditions: Homo sapiens, A549, 48 h, mean ± SE
Method: as §1

HepG2 cells [1] = assay: Inhibition curve of a14 on HepG2 cells (MTT, 24, 48, 72 h); format: cell-based, human; conditions: in words
Method: HepG2 cells (5 × 10^3 cells/well) were seeded into the 96-well plates and kept to attach overnight. […] After the incubation time, 10 µl MTT was added to each well, and the culture was continued in a sterile incubator at 37°C for 4 h under the environment of 5% CO2. Then, the supernatant medium was discarded, and the solid was dissolved in 200 µl DMSO. Then, a multifunction microplate reader (Bio-Rad Laboratories, Shanghai, China) was applied to record the absorbance at 490 nm. Cell growth inhibition rates at different concentrations were calculated and plotted using Origin Pro8 software. Each set of data represented the average value of three independent experiments.

[2] = tested on: adherent tumor cell lines (HepG2, A549 and Hela); assay: MTT assay, summary over adherent tumor cell lines; format: cell-based; conditions: Homo sapiens; span of IC50 over compounds a11-a14 and adherent tumor cell lines; read-out: IC50 range over cell lines
Method: as §1

PARP in HepG2 cells = assay: Western blot, PARP and cleaved PARP; format: cell-based, human; conditions: 48 h, compared to the control group; in words
Method: (§2) HepG2 cells (3 × 10^5 cells/well) were seeded into a six-well plate overnight for adherence, and then treated with a14 (0, 30, 40, 50, 60, and 70 µM) for 48 h. After the cells were collected by centrifugation, they were lysed with the radio immunoprecipitation assay (RIPA) buffer (high) containing 50 mM Tris (pH = 7.4), 150 mM NaCl, 1% TritonX-100, 1% sodium deoxycholate, 0.1% sodium dodecyl sulfate (SDS), 2 mM sodium pyrophosphate, 25 mM β-glycerophosphate, 1 mM ethylenediaminetetraacetic acid (EDTA), 1 mM Na3VO4, and 0.5 ug/ml leupeptin (Beijing Solarbio Science & Technology Co., Ltd.).The extract was then centrifuged at 12,000 rpm for 30 min and the total protein concentration was quantified using the BCA kit (Beijing Solarbio Science & Technology Co., Ltd.). The protein extracts were mixed with the SDS-PAGE protein loading buffer (Beijing Solarbio Science & Technology Co., Ltd.) and then boiled in 100°C water bath for 10 min. The gel was gelatinized using an SDS Gel Kit (Beijing Solarbio Science & Technology Co., Ltd.) and protein extracts were separated by protein SDS-polyacrylamide gel electrophoresis and transferred to Immobilon-NC Membrane (Beijing Solarbio Science & Technology Co., Ltd.). […]

Bax in HepG2 cells = assay: Western blot, Bax; format: cell-based, human; conditions: different concentrations, 48 h, dose-dependent; in words
Method: as §2

HepG2 cells [3] = assay: DAPI staining, morphology of apoptotic cells; format: cell-based, human; conditions: various concentrations, 48 h; in words
Method: Firstly, HepG2 cells (3 × 10^5 cells/well) were seeded into six-well plates and kept to attach overnight. Then, the cells were incubated with a14 at different concentrations (0, 30, 50, and 70 µM) for 48 h, washed by ice-cold PBS solution and fixed with 4% paraformaldehyde for 10 min at room temperature. The cells was processed by DAPI (10 µg/ml) for 15 min in the dark, and the residual DAPI was rinsed two more times by ice-cold PBS. Then, the cells were transferred on a glass slide, fixed with a coverslip and placed under a fluorescence microscope (Motic China Group Co., Ltd., Shenzhen, China) to be observed and photographed at an excitation wavelength of 480/30× nm and the emission wavelength of 515 nm. Condensation of chromatin and fragmentation of nuclei could be applied to determine the apoptotic cells.

ROS level in HepG2 cells = assay: ROS level by DCFH-DA probe, flow cytometry; format: cell-based, human; conditions: a14 50 µM, 8 h (0 h: 4351.6)
Method: HepG2 cells were seeded into six-well plates (3 × 10^5 cells/well) overnight to make the cells grow adherently and then incubated with a14 (50 µM) for 0, 3, 6, 8, 9, and 12 h. After that, the cells were added to 1 ml DCFH-DA (10 µM) and incubated for 30 min in the dark. After the cells were washed twice by the pre-cooled PBS, the cells were trypsinized and collected by centrifugation. The cells of the blank group were implemented the same experimental procedures, except for the process with a14. Besides, 5 mM N-acetyl-L-cysteine (NAC) was applied as anti-oxidative substance to prevent the oxidation of the cells, which could entirely block the production of ROS induced by a14. The generation levels of ROS were evaluated in fluorescence intensity (FL-1, 530 nm) by Beckman Coulter flow cytometer (Beckman Coulter, Inc. California). The data collected was analyzed using the CytExpert 2.0 software embedded in Beckman flow cytometry, and the histogram was plotted by Origin Pro8.

Q: With `COc1cc(/C=C/C(=O)c2ccc(O)c(C(N)=O)c2)cc(OC)c1OC` [a14] as the compound, how does the IC50 (WI-38) read?
A: Its IC50 is 121.3 ± 0.87 µM.

Q: And the IC50 (A549)?
A: The IC50 was 36.7 ± 1.08 µM.

Q: And the “inhibitory activities on HepG2 cells” value (HepG2 cells [1]; 24, 48, 72 h, different concentrations)?
A: The value was “dose- and time-dependent manner”.

Q: What about the “growth inhibition effect on HepG2 cells” value (HepG2 cells [1]; action time 48 or 72 h) of the same compound?
A: The value was “significantly improved”.

Q: And the “cytotoxic effect on HepG2 cells” value (HepG2 cells [1]; action time less than 24 h)?
A: Its value is “relatively weak”.

Q: And the IC50 [2]?
A: Its IC50 is 23.3 to 54.4 µM.

Q: What about the “expression level of PARP” value (PARP in HepG2 cells) of the same compound?
A: Its value is “decrease”.

Q: What about the “level of cleaved PARP proteins” value (PARP in HepG2 cells) of the same compound?
A: The value was “increase”.

Q: And the “expression of pro-apoptotic proteins (Bax)” value (Bax in HepG2 cells)?
A: The value was “up-regulated”.

Q: What about the “morphological changes of the nucleus (DAPI)” value (HepG2 cells [3]) of the same compound?
A: The value was “a large number of nuclear condensation and nuclear fragmentation”.

Q: What about the “intracellular fluorescence intensity (DCFH-DA)” value (ROS level in HepG2 cells) of the same compound?
A: Its value is 236197.3.
